The results in this text go back to patent US20260176320A1, “MODULATORS OF G-PROTEIN COUPLED RECEPTORS” (priority 2018, published 2026).

In general, Emax refers to the maximal effect, on the per cent scale that the assay sets.

Common to all, as to assay type: cell-based
Experiment [1] concerns the target T1, GLP-1R (Homo sapiens, UniProt P43220). Nature of the experiment: PathHunter β-arrestin assay. In outline: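 Overnight-plated cells; 0.2% BSA medium; agonist 22-pt 2× dilution series, duplicate; 90 min, 37 °C/5% CO2; detection reagent 3 h RT, dark; luminescence.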
The target of another experiment is T2, GIP-R (Homo sapiens, UniProt P48546).
T2 sequence (P48546 22-466): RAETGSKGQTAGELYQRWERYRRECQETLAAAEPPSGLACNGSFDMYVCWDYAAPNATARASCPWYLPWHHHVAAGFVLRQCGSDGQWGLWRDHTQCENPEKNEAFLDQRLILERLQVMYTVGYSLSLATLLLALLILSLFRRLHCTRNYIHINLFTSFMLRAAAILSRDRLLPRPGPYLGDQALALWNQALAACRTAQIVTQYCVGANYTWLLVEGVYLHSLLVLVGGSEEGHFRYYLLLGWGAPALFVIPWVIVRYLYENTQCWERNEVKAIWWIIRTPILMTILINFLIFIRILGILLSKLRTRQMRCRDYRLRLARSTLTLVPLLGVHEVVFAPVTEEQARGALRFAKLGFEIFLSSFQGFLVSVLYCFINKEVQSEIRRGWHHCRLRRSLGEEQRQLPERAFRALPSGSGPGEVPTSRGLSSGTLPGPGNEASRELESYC
The experiment in a line: HitHunter cAMP assay (GIP-R). To be noted: for EC50: EC50 GIP-R/nM; for Emax: read-out: (Emax) GIP-R. The method, boiled down: (§1)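 Luminescent readout of cAMP by enzyme-fragment immunocompetition gave agonist concentration-response data. Cells (10,000/well) sat in HBSS buffer containing IBMX 625 μM, HEPES 10 mM and BSA 0.2%, exposed to agonist for 30 min at room temperature.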

Experiment [2] concerns the target T1, GLP-1R. The experiment in a line: HitHunter cAMP assay (GLP-1R). As to conditions: for Emax: read-out: (Emax) GLP-1R. The method, boiled down:
as §1
Background: Cyclic AMP is a second messenger, typically raised through Gs and lowered through Gi signalling.

Where two headings read alike, the source gives them in different places.

T1 sequence (P43220 24-463): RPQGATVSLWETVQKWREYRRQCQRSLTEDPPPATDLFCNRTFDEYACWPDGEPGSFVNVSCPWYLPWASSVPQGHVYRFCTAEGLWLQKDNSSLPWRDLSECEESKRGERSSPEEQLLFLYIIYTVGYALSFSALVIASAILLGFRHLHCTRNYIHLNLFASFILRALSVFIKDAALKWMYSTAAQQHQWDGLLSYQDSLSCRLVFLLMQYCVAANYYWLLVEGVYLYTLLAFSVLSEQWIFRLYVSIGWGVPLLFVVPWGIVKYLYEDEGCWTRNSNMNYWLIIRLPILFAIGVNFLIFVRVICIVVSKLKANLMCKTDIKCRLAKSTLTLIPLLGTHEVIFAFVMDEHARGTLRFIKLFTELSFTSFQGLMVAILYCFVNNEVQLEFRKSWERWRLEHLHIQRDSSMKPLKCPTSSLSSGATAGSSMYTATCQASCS

For `CCCCCCCCCCCCCCCC(=O)N[C@@H](CCC(=O)NCCCC[C@H](NC(=O)[C@H](CO)NC(=O)[C@@H]1CCCN1C(=O)[C@@H]1CCCN1C(=O)[C@@H]1CCCN1C(=O)[C@H](C)NC(=O)CNC(=O)[C@H](CO)NC(=O)[C@H](CO)NC(=O)[C@@H]1CCCN1C(=O)CNC(=O)CNC(=O)[C@H](C)NC(=O)[C@H](CC(C)C)NC(=O)[C@H](CC(C)C)NC(=O)[C@H](Cc1c[nH]c2ccccc12)NC(=O)[C@H](CC(N)=O)NC(=O)[C@@H](NC(=O)[C@H](Cc1ccccc1)NC(=O)[C@H](CCC(=O)O)NC(=O)C(C)(C)NC(=O)[C@H](C)NC(=O)[C@H](C)NC(=O)[C@H](CCC(N)=O)NC(=O)[C@H](CCCCN)NC(=O)[C@H](CC(=O)O)NC(=O)[C@H](CC(C)C)NC(=O)[C@H](Cc1ccc(O)cc1)NC(=O)[C@@H](NC(=O)[C@H](CO)NC(=O)[C@H](Cc1ccc(O)cc1)NC(=O)[C@H](CC(=O)O)NC(=O)[C@H](CO)NC(=O)[C@@H](NC(=O)[C@H](Cc1ccccc1)NC(=O)[C@@H](NC(=O)CNC(=O)[C@H](CCC(=O)O)NC(=O)CCCCC(=O)NCCN1CCCCC1=O)[C@@H](C)O)[C@@H](C)O)[C@@H](C)CC)C(C)C)C(N)=O)C(=O)O` [Compound 20], the EC50 on GLP-1R [1] was above 1000 nM; at GIP-R (Table 3, cAMP), 1 to 10 nM; at GIP-R (Table 3A, cAMP), 10 to 100 nM; at GLP-1R [2], 0.1 to 1 nM; on GLP-1R [2] (read-out: EC50 GLP-1R/nM, Table 3A, cAMP), 0.1 to 1 nM. The Emax on GIP-R stood at 22%; at GLP-1R [2], 91%.

In the case of `CCCCCCCCCCCCCCCC(=O)N[C@@H](CCC(=O)NCCCC[C@H](NC(=O)[C@H](CO)NC(=O)[C@@H]1CCCN1C(=O)[C@@H]1CCCN1C(=O)[C@@H]1CCCN1C(=O)[C@H](C)NC(=O)CNC(=O)[C@H](CO)NC(=O)[C@H](CO)NC(=O)[C@@H]1CCCN1C(=O)CNC(=O)CNC(=O)[C@H](C)NC(=O)[C@H](CC(C)C)NC(=O)[C@H](CC(C)C)NC(=O)[C@H](Cc1c[nH]c2ccccc12)NC(=O)[C@H](CC(N)=O)NC(=O)[C@@H](NC(=O)[C@H](Cc1ccccc1)NC(=O)[C@H](CCC(=O)O)NC(=O)C(C)(C)NC(=O)[C@H](C)NC(=O)[C@H](C)NC(=O)[C@H](CCC(N)=O)NC(=O)[C@H](CCCCN)NC(=O)[C@H](CC(=O)O)NC(=O)[C@H](CC(C)C)NC(=O)[C@H](Cc1ccc(O)cc1)NC(=O)[C@@H](NC(=O)[C@H](CO)NC(=O)[C@H](Cc1ccc(O)cc1)NC(=O)[C@H](CC(=O)O)NC(=O)[C@H](CO)NC(=O)[C@@H](NC(=O)[C@H](Cc1ccccc1)NC(=O)[C@@H](NC(=O)CNC(=O)[C@H](CCC(=O)O)NC(=O)CSCC(=O)NCCN1CCC[C@H](O)C1=O)[C@@H](C)O)[C@@H](C)O)[C@@H](C)CC)C(C)C)C(N)=O)C(=O)O` [Compound 21], the EC50 is above 1000 nM on GLP-1R [1]; 1 to 10 nM at GIP-R (Table 3, cAMP); 10 to 100 nM on GIP-R (Table 3A, cAMP); below 0.1 nM at GLP-1R [2] (EC50 GLP-1R/nM, Table 3, cAMP); below 0.1 nM on GLP-1R [2] (EC50 GLP-1R/nM, Table 3A, cAMP). For the same compound, the Emax at GIP-R (Table 3, cAMP) is 20%; on GIP-R (Table 3A, cAMP), 20%; at GLP-1R [2] (Table 3, cAMP), 95%; at GLP-1R [2] (Table 3A, cAMP), 95%.

For the compound `CCCCCCCCCCCCCCCC(=O)N[C@@H](CCC(=O)NCCCC[C@H](NC(=O)[C@H](CO)NC(=O)[C@@H]1CCCN1C(=O)[C@@H]1CCCN1C(=O)[C@@H]1CCCN1C(=O)[C@H](C)NC(=O)CNC(=O)[C@H](CO)NC(=O)[C@H](CO)NC(=O)[C@@H]1CCCN1C(=O)CNC(=O)CNC(=O)[C@H](C)NC(=O)[C@H](CC(C)C)NC(=O)[C@H](CC(C)C)NC(=O)[C@H](Cc1c[nH]c2ccccc12)NC(=O)[C@H](CC(N)=O)NC(=O)[C@@H](NC(=O)[C@H](Cc1ccccc1)NC(=O)[C@H](CCC(=O)O)NC(=O)C(C)(C)NC(=O)[C@H](C)NC(=O)[C@H](C)NC(=O)[C@H](CCC(N)=O)NC(=O)[C@H](CCCCN)NC(=O)[C@H](CC(=O)O)NC(=O)[C@H](CC(C)C)NC(=O)[C@H](Cc1ccc(O)cc1)NC(=O)[C@@H](NC(=O)[C@H](CO)NC(=O)[C@H](Cc1ccc(O)cc1)NC(=O)[C@H](CC(=O)O)NC(=O)[C@H](CO)NC(=O)[C@@H](NC(=O)[C@H](Cc1ccccc1)NC(=O)[C@@H](NC(=O)CNC(=O)[C@H](CCC(=O)O)NC(=O)CSCC(=O)NCCN1C[C@@H](OC)CC1=O)[C@@H](C)O)[C@@H](C)O)[C@@H](C)CC)C(C)C)C(N)=O)C(=O)O` [Compound 22], the EC50 is above 1000 nM on GLP-1R [1]; 0.1 to 1 nM on GIP-R (Table 3, cAMP); 0.1 to 1 nM on GIP-R (Table 3A, cAMP); 0.1 to 1 nM at GLP-1R [2] (EC50 GLP-1R/nM, Table 3, cAMP); 0.1 to 1 nM at GLP-1R [2] (EC50 GLP-1R/nM, Table 3A, cAMP). Also, the Emax was found to be 46% on GIP-R (Table 3, cAMP); 46% at GIP-R (Table 3A, cAMP); 90% at GLP-1R [2] (Table 3, cAMP); 90% on GLP-1R [2] (Table 3A, cAMP).

For the compound `CCCCCCCCCCCCCCCC(=O)N[C@@H](CCC(=O)NCCCC[C@H](NC(=O)[C@H](CO)NC(=O)[C@@H]1CCCN1C(=O)[C@@H]1CCCN1C(=O)[C@@H]1CCCN1C(=O)[C@H](C)NC(=O)CNC(=O)[C@H](CO)NC(=O)[C@H](CO)NC(=O)[C@@H]1CCCN1C(=O)CNC(=O)CNC(=O)[C@H](C)NC(=O)[C@H](CC(C)C)NC(=O)[C@H](CC(C)C)NC(=O)[C@H](Cc1c[nH]c2ccccc12)NC(=O)[C@H](CC(N)=O)NC(=O)[C@@H](NC(=O)[C@H](Cc1ccccc1)NC(=O)[C@H](CCC(=O)O)NC(=O)C(C)(C)NC(=O)[C@H](C)NC(=O)[C@H](C)NC(=O)[C@H](CCC(N)=O)NC(=O)[C@H](CCCCN)NC(=O)[C@H](CC(=O)O)NC(=O)[C@H](CC(C)C)NC(=O)[C@H](Cc1ccc(O)cc1)NC(=O)[C@@H](NC(=O)[C@H](CO)NC(=O)[C@H](Cc1ccc(O)cc1)NC(=O)[C@H](CC(=O)O)NC(=O)[C@H](CO)NC(=O)[C@@H](NC(=O)[C@H](Cc1ccccc1)NC(=O)[C@@H](NC(=O)CNC(=O)[C@H](CCC(=O)O)NC(=O)CSCC(=O)NCCN1CCCN(C)C1=O)[C@@H](C)O)[C@@H](C)O)[C@@H](C)CC)C(C)C)C(N)=O)C(=O)O` [Compound 23], the EC50 on GLP-1R [1] was above 1000 nM; on GIP-R (Table 3, cAMP) it was 1 to 10 nM; on GIP-R (Table 3A, cAMP) it was 1 to 10 nM; on GLP-1R [2] (EC50 GLP-1R/nM, Table 3, cAMP) it was 1 to 10 nM; on GLP-1R [2] (EC50 GLP-1R/nM, Table 3A, cAMP), 1 to 10 nM. The Emax on GIP-R (Table 3, cAMP) was found to be 37%; on GIP-R (Table 3A, cAMP), 37%; at GLP-1R [2] (Table 3, cAMP), 83%; at GLP-1R [2] (Table 3A, cAMP), 83%.

`CCCCCCCCCCCCCCCC(=O)N[C@@H](CCC(=O)NCCCC[C@H](NC(=O)[C@H](CO)NC(=O)[C@@H]1CCCN1C(=O)[C@@H]1CCCN1C(=O)[C@@H]1CCCN1C(=O)[C@H](C)NC(=O)CNC(=O)[C@H](CO)NC(=O)[C@H](CO)NC(=O)[C@@H]1CCCN1C(=O)CNC(=O)CNC(=O)[C@H](C)NC(=O)[C@H](CC(C)C)NC(=O)[C@H](CC(C)C)NC(=O)[C@H](Cc1c[nH]c2ccccc12)NC(=O)[C@H](CC(N)=O)NC(=O)[C@@H](NC(=O)[C@H](Cc1ccccc1)NC(=O)[C@H](CCC(=O)O)NC(=O)C(C)(C)NC(=O)[C@H](C)NC(=O)[C@H](C)NC(=O)[C@H](CCC(N)=O)NC(=O)[C@H](CCCCN)NC(=O)[C@H](CC(=O)O)NC(=O)[C@H](CC(C)C)NC(=O)[C@H](Cc1ccc(O)cc1)NC(=O)[C@@H](NC(=O)[C@H](CO)NC(=O)[C@H](Cc1ccc(O)cc1)NC(=O)[C@H](CC(=O)O)NC(=O)[C@H](CO)NC(=O)[C@@H](NC(=O)[C@H](Cc1ccccc1)NC(=O)[C@@H](NC(=O)CNC(=O)[C@H](CCC(=O)O)NC(=O)CSCC(=O)NCCN1CCNC(=O)C1=O)[C@@H](C)O)[C@@H](C)O)[C@@H](C)CC)C(C)C)C(N)=O)C(=O)O` [Compound 24]: the EC50 on GLP-1R [1] is above 1000 nM; at GIP-R (Table 3, cAMP) it was 1 to 10 nM; at GIP-R (Table 3A, cAMP), 100 to 1000 nM; at GLP-1R [2] (EC50 GLP-1R/nM, Table 3, cAMP), 0.1 to 1 nM; at GLP-1R [2] (EC50 GLP-1R/nM, Table 3A, cAMP) it was 0.1 to 1 nM. For the same compound, the Emax on GIP-R (Table 3, cAMP) turned out to be 15%; at GIP-R (Table 3A, cAMP), 15%; on GLP-1R [2] (Table 3, cAMP), 92%; at GLP-1R [2] (Table 3A, cAMP), 92%.
